# Assay results: the supplement of paper PMC7455731
# Assay: collision cross section (DTIM-MS, N2); higher = larger ion
# Description: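 Collision cross section (CCS) of drug and natural-product chemical standards (validation set 2, measured in this paper). Three independent measurements were made across 2 months; the value taken is their mean (avg_ccs), for the ion adduct given.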
collision cross section (ion adduct: [M+H]+) [Å²],collision cross section (ion adduct: [M-H]-) [Å²],SMILES
–,121.24,O=C(O)c1ccccc1O [Salicylic acid]
149.53,–,CC(C)=C1C/C=C(\C)CC/C=C(\C)CC1=O [Germacrone]
124.71,122.43,NC(=O)c1ccccc1O [Salicylamide]
–,151.89,Nc1ccn([C@@H]2O[C@H](CO)[C@@H](O)[C@@H]2O)c(=O)n1 [Cytarabine]
144.57,–,Cc1cc(=O)oc2c([N+](=O)[O-])c(O)ccc12 [7-hydroxy-4-methyl-8-nitrocoumarin]
–,166.95,O=C(N[C@H](CO)[C@H](O)c1ccc([N+](=O)[O-])cc1)C(Cl)Cl [Chloramphenicol]
–,144.12,CCOC(=O)c1ccc(O)c(OC)c1 [Ethyl Vanillate]
139.92,–,COc1c2ccoc2cc2oc(=O)ccc12 [Bergapten]
127.62,–,Cc1ncc([N+](=O)[O-])n1C [Dimetridazole]
137.12,–,Cn1c(=O)c2[nH]cnc2n(C)c1=O [Theophylline]
157.98,158.46,Nc1ccn(C[C@@H](CO)OCP(=O)(O)O)c(=O)n1 [Cidofovir]
179.46,–,COc1cc(/C=C/C(=O)N2CCC=CC2=O)cc(OC)c1OC [Piperlongumine]
–,142.34,O=c1[nH]c(=O)n(C2CCCO2)cc1F (stereo not drawn) [Tegafur]
–,146.35,COC(=O)c1cc(OC)c(O)c(OC)c1 [Methyl syringate]
131.39,–,COc1ccc2ccc(=O)oc2c1 [7-Methoxycoumarin]

# Second part, the compound before the results:
SMILES,collision cross section (ion adduct: [M+H]+) [Å²],collision cross section (ion adduct: [M-H]-) [Å²]
COc1cc([C@H]2Oc3cc([C@H]4Oc5cc(O)cc(O)c5C(=O)[C@@H]4O)ccc3O[C@@H]2CO)ccc1O [Silybin],208.54,204.63
COC1=CC(=O)O[C@@H](/C=C/c2ccccc2)C1 [Kawain],150.52,–
COc1cc2c(cc1OC)[C@@H]1C(=O)c3ccc4c(c3O[C@@H]1CO2)C=CC(C)(C)O4 [Deguelin],196.5,198.36
O=C1CCc2ccccc2O1 [Hydrocoumarin],–,127.47
"O=c1cc(-c2ccccc2)c2ccc(O)c(O)c2o1 [7,8-Dihydroxy-4-phenylcoumarin]",156.5,157.01
C=CC[C@]1(O)CC[C@H]2[C@@H]3CCC4=CC(=O)CCC4=C3C=C[C@@]21C [Altrenogest],178.86,180.56
CC1(C)C=Cc2c(ccc3c2OC[C@@H](c2ccc(O)cc2O)C3)O1 [Glabridin],180.63,184.46
N#C[C@H](O[C@@H]1O[C@H](CO[C@@H]2O[C@H](CO)[C@@H](O)[C@H](O)[C@H]2O)[C@@H](O)[C@H](O)[C@H]1O)c1ccccc1 [Amygdalin],214.69,205.69
COc1ccc(-c2cc(=O)c3c(O)cc(O)c(-c4cc(-c5cc(=O)c6c(O)cc(OC)cc6o5)ccc4OC)c3o2)cc1 [Sciadopitysin],235.37,235.5
CN(C)NC(=O)CCC(=O)O [Daminozide],–,135.88
OC[C@@H](O)[C@@H](O[C@H]1O[C@H](CO)[C@@H](O)[C@H](O)[C@H]1O)[C@H](O)[C@@H](O)CO [Maltitol],–,169.57
O=C(/C=C/C=C/c1ccc2c(c1)OCO2)N1CCCCC1 [Piperine],177.2,–
COc1cc(C2c3cc4c(cc3C(O)C3COC(=O)C23)OCO4)cc(OC)c1O (stereo not drawn) [4'-Demethylpodophyllotoxin],195.99,197.38
C=C(C)[C@H]1Cc2c(ccc3c2O[C@@H]2COc4cc(OC)c(OC)cc4[C@@H]2C3=O)O1 [Rotenone],195.49,198.71
COc1cc2oc(-c3ccc(O)cc3)cc(=O)c2c(O)c1C1OC(CO)C(O)C(O)C1OC1OC(CO)C(O)C(O)C1O (stereo not drawn) [Spinosin],235.99,239.41
CCCCCCCCC[C@H](O)CC(=O)CCc1ccc(O)c(OC)c1 [10-Gingerol],–,188

SMILES,collision cross section (ion adduct: [M+H]+) [Å²],collision cross section (ion adduct: [M-H]-) [Å²]
O=C(Nc1nc(-c2ccc(O)c(O)c2)c(-c2ccccc2)s1)c1ccc(O)c(O)c1 [COH29],207.91,200.74
C=C[C@H]1[C@H](O[C@@H]2O[C@H](CO)[C@@H](O)[C@H](O)[C@H]2O)OC=C(C(=O)OC)[C@H]1CC(=O)O [Secoxyloganin],–,190.5
O=C(Nc1ccccc1)c1ccccc1I [Benodanil],152.62,156.05
CC(C)(C)[C@]1(O)C[C@@H]2OC(=O)C[C@@]23C(=O)O[C@@H]2OC(=O)[C@H](O)[C@]213 [(-)-Bilobalide],–,162.4
COC(=O)C1=CO[C@@H](O[C@@H]2O[C@H](CO)[C@@H](O)[C@H](O)[C@H]2O)[C@@H]2C(CO)=CC[C@H]12 [Geniposide],–,184.6
COc1ccc(CCC(=O)c2c(O)cc(O[C@@H]3O[C@H](CO)[C@@H](O)[C@H](O)[C@H]3O[C@@H]3O[C@@H](C)[C@H](O)[C@@H](O)[C@H]3O)cc2O)cc1O [Neosperidin dihydrochalcone],233.96,–
CCOc1cc(C=O)ccc1O [Ethyl vanillin],–,133.69
CC1(C)[C@@H](O[C@H]2O[C@H](C(=O)O)[C@@H](O)[C@H](O)[C@H]2OC2O[C@H](C(=O)O)[C@@H](O)[C@H](O)[C@H]2O)CC[C@]2(C)[C@H]3C(=O)C=C4[C@@H]5C[C@@](C)(C(=O)O)CC[C@]5(C)CC[C@@]4(C)[C@]3(C)CC[C@@H]12 (stereo partly drawn) [Glycyrrhizic acid],287.67,281.13
COc1cc(O)cc(/C=C/c2ccc(O)cc2)c1 [Pinostilbene],160.07,166.26
CC(/C=C/C=C(\C)C(=O)O[C@@H]1O[C@H](CO[C@@H]2O[C@H](CO)[C@@H](O)[C@H](O)[C@H]2O)[C@@H](O)[C@H](O)[C@H]1O)=C\C=C\C=C(C)\C=C\C=C(/C)C(=O)O[C@@H]1O[C@H](CO[C@@H]2O[C@H](CO)[C@@H](O)[C@H](O)[C@H]2O)[C@@H](O)[C@H](O)[C@H]1O [Crocin],–,310.8
CC1CCC=C2C(=O)CC3OOC(C)(C)C3C21C (stereo not drawn) [Nardosinone],–,156.3
CNC(=O)Oc1cccc2ccccc12 [Carbaryl],–,144.36
O=P(OCCCl)(OCCCl)OCCCl [Tris(2-chloroethyl) phosphate],151.08,–
COc1cc(O)c2c(=O)cc(-c3ccc(O)cc3)oc2c1 [Genkwanin],163.54,166.12
COc1ccc(C=Cc2cc(OC)cc(=O)o2)cc1 [yangonin],163.31,–
